Reference: patent publication US20250388620A1, “EFFICIENT METHOD FOR MAKING HIGHLY PURIFIED 5’- CAPPED OLIGONUCLEOTIDES” (TriLink BioTechnologies, LLC, priority 2022, published 2025)

What was measured:
HEK293 cells = experiment: mWasabi fluorescence assay (protein expression of capped mRNA) in HEK293 cells; format: cell-based; settings: mWasabi encoding mRNA capped with the cap analog, 24 hours post transfection, 12.5 ng mRNA per well
Description: (§1) Wasabi and FLuc mRNAs capped with cap analog ARCA, cap analog A-1, cap analog A-2, cap analog 3′OMe, or cap analog A-Control (see Table 2) were prepared as described in International Patent Publication Nos. WO2017053297 and WO2023147352 which are incorporated herein by reference in their entirety.
(§2) The IVT template was used to prepare mWasabi encoding mRNA (970 nucleotides) with cap analogs A-control, 3′OMe, A-1 or A-2 by in-vitro transcription. The mRNAs were purified prior to use in assays described below. Protein expression was measured by Allele Biotechnology in cell-based assays.
(§3) mWasabi Fluorescence Assay:
(§4) The day before transfection: cells were seeded as follows: • HEK293 cells: 6.25×10^4/cm^2 • HeLa cells: 3.125×10^4/cm^2 • The cells were dissociated with TrypLE • HEK293 cells were seeded in 96 well plates coated with Poly-D-Lysine (50 μL at 100 μg/mL per well). • HeLa cells were seeded in 96 well plates (no coating required). • The cells were seeded in 100 μL of growth media (Growth Media: DMEM+10% FBS supplemented with GlutaMAX and MEM Non-Essential Amino Acids).
(§5) The day of transfection: Opti-MEM and MessengerMax Transfection Reagent were allowed to reach room temperature. Two tubes were set up for each mRNA (i.e., for each cap analog). […]
(§6) mWasabi fluorescent expression was quantified using Cytation 10 after 24 hours.

HeLa cells = experiment: mWasabi fluorescence assay (protein expression of capped mRNA) in HeLa cells; format: cell-based; settings: mWasabi encoding mRNA capped with the cap analog, 24 hours post transfection, 12.5 ng mRNA per well
Description: as §1, §2, §3, §4, §5, §6

Substance	fluorescence intensity (i.e., protein expression levels) (HEK293 cells)	fluorescence intensity (i.e., protein expression levels) (HeLa cells)
^N7-(4-chlorobenzyl)G3′OMeppp^m6A2′OMepG [Compound A-1]	comparable to that of mRNA capped with Cap 3′OMe or mRNA capped with A-control, and much higher than that of mRNA capped with ARCA cap	comparable to that of mRNA capped with Cap 3′OMe or mRNA capped with A-control, and much higher than that of mRNA capped with ARCA cap
^m7, N2-butylG3′OMeppp^m6A2′OMepG [Compound A-2]	comparable to that of mRNA capped with Cap 3′OMe or mRNA capped with A-control, and much higher than that of mRNA capped with ARCA cap	comparable to that of mRNA capped with Cap 3′OMe or mRNA capped with A-control, and much higher than that of mRNA capped with ARCA cap
